# From paper PMC9607081 (Membranes, 2022)
# Legend:
# [1] = system: human GlyR α1 subunit P146 (CysL) substituted with TFP
# Protocol: (§1) The cDNA for the human GlyR α1 subunit was in pGEMHE (ThermoFischer Scientific, Bishops Stortford, UK). Site-directed mutagenesis was performed using QuikChange (Agilent Technologies, Milton Keynes, UK) to generate the appropriate codon. For non-canonical amino acid mutants and conventional mutants generated by nonsense suppression, the site of interest was mutated to the TAG stop codon. Receptor mRNA was then prepared by in vitro runoff transcription using the Ambion T7 mMessage mMachine kit (ThermoFischer Scientific, Bishops Stortford, UK). Noncanonical amino acids were ligated to tRNA as previously described.
# (§2) Stage V-VI oocytes of Xenopus laevis were harvested and injected with RNAs as described previously. For nonsense suppression experiments, each cell was injected with 50–100 ng each of receptor mRNA and tRNA charged with the appropriate Pro analogue ~48 h before recording. For wild type and conventional mutants, each cell received a single injection of 10–25 ng of receptor mRNA ~24 h before recording. Injection volumes were 50–100 nL per cell.
# (§3) As a negative control for suppression experiments at each site, unligated tRNA was co-injected with mRNA in the same manner as charged tRNA. […] Pro recovery (injecting tRNA charged with Pro to regenerate a wild type channel via nonsense suppression) was used alongside Pro analogues as a positive control.
# (§4) Two-electrode voltage clamping of Xenopus oocytes was performed using standard electrophysiological procedures as previously, using an OpusXpress system (Axon Instruments, Inc., Union City, CA, USA). All experiments were performed at 22–25 °C. […] The holding potential was −60 mV unless otherwise specified. […] Data were analysed using Prism (GraphPad Software Inc., San Diego, CA, USA), fitting concentration-response data to the four-parameter logistic equation. Statistical analysis was performed using ANOVA with a Dunnett’s multiple comparisons post test.
# [2] = system: human GlyR α1 subunit P230 (M1) substituted with 2MeP; conditions: Table 2, P230 2MeP, n = 4
# Protocol: as §1, §2, §3, §4
# [3] = system: human GlyR α1 subunit P230 (M1) substituted with 3MeP; conditions: Table 2, P230 3MeP, n = 4
# Protocol: as §1, §2, §3, §4
# [4] = system: human GlyR α1 subunit P230 (M1) substituted with CFP
# Protocol: as §1, §2, §3, §4
# [5] = system: human GlyR α1 subunit P230 (M1) substituted with Pip
# Protocol: as §1, §2, §3, §4
# [6] = target: human GlyR α1 subunit P230 (M1) substituted with Pro (Homo sapiens, UniProt P23415); conditions: Table 2, n = 4
# Protocol: as §1, §2, §3, §4
# [7] = system: human GlyR α1 subunit P230 (M1) substituted with TFP
# Protocol: as §1, §2, §3, §4
# [8] = system: human GlyR α1 subunit P30 (α1β1L) substituted with 2MeP; conditions: Table 2, P30 2MeP, n = 5
# Protocol: as §1, §2, §3, §4
# [9] = system: human GlyR α1 subunit P30 (α1β1L) substituted with CFP
# Protocol: as §1, §2, §3, §4
# [10] = system: human GlyR α1 subunit P30 (α1β1L) substituted with Pip
# Protocol: as §1, §2, §3, §4
# [11] = target: human GlyR α1 subunit P30 (α1β1L) substituted with Pro (Homo sapiens, UniProt P23415); conditions: Table 2, n = 6
# Protocol: as §1, §2, §3, §4
# [12] = system: human GlyR α1 subunit P30 (α1β1L) substituted with Vah
# Protocol: as §1, §2, §3, §4
# [13] = system: human GlyR α1 subunit P96 (loopA) substituted with 3MeP; conditions: Table 2, P96 3MeP, n = 4
# Protocol: as §1, §2, §3, §4
# [14] = system: human GlyR α1 subunit P96 (loopA) substituted with CFP
# Protocol: as §1, §2, §3, §4
# [15] = target: human GlyR α1 subunit P96 (loopA) substituted with Pro (Homo sapiens, UniProt P23415); conditions: Table 2, n = 5
# Protocol: as §1, §2, §3, §4
# [16] = system: human GlyR α1 subunit P96 (loopA) substituted with Vah
# Protocol: as §1, §2, §3, §4
# [17] = target: T1, human GlyR α1 subunit P30A (Homo sapiens, UniProt P23415, P58A); test: Two-electrode voltage clamp of Xenopus oocytes expressing P30A GlyR; type: cell-based; conditions: n = 5
# T1 construct: expressed in transfected cells; host or cells: Xenopus laevis oocytes injected with receptor mRNA
# Protocol: Injection volumes were 50–100 nL per cell.
# All experiments were performed at 22–25 °C. […] The holding potential was −60 mV unless otherwise specified.
# [18] = Table 2, nonsense suppression, n = 5
# [19] = Table 2, nonsense suppression, n = 4
# [20] = Table 2, nonsense suppression, n = 6
# T1 sequence (P23415 29-457 P58A): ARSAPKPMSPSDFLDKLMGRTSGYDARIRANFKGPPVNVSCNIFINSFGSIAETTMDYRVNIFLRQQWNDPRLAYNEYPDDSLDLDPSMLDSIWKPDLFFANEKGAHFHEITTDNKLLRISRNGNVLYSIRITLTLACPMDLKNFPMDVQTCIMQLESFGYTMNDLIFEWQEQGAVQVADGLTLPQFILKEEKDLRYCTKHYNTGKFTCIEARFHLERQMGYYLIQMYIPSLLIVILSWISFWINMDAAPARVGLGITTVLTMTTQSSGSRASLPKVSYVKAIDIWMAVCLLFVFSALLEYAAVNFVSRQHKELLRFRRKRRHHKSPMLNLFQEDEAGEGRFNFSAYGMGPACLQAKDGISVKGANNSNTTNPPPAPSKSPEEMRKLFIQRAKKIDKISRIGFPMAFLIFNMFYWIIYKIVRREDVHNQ
# Chain of human GlyR α1 subunit P30 (α1β1L) substituted with Pro (P23415 29-457): as the sequence (P23415 29-457 P58A) above, with A30P counted along it
# Chain of human GlyR α1 subunit P230 (M1) substituted with Pro (P23415 29-457): as the sequence (P23415 29-457 P58A) above, with A30P counted along it
# Chain of human GlyR α1 subunit P96 (loopA) substituted with Pro (P23415 29-457): as the sequence (P23415 29-457 P58A) above, with A30P counted along it
compound,measurement,setting,value
"NCC(=O)O [Gly, glycine]",nH,"[1]; Table 2, n = 5",2.3 ± 0.4
same,EC50,[1]; [18],156 µM
same,pEC50,[1]; [18],3.806 ± 0.05 M
same,nH,[2],1.6 ± 0.5
same,EC50,[2]; nonsense suppression,177 µM
same,pEC50,[2]; nonsense suppression,3.751 ± 0.08 M
same,nH,[3],1.1 ± 0.4
same,EC50,[3]; nonsense suppression,34 µM
same,pEC50,[3]; nonsense suppression,4.471 ± 0.08 M
same,nH,"[4]; Table 2, n = 4",1.4 ± 0.2
same,EC50,[4]; [19],74 µM
same,pEC50,[4]; [19],4.131 ± 0.04 M
same,nH,"[5]; Table 2, n = 4",1.1 ± 0.2
same,EC50,[5]; [19],68 µM
same,pEC50,[5]; [19],4.166 ± 0.08 M
same,nH,[6],2.5 ± 0.9
same,nH,"[7]; Table 2, n = 4",3.0 ± 1.4
same,EC50,[7]; [19],125 µM
same,pEC50,[7]; [19],3.904 ± 0.06 M
same,nH,[8],1.6 ± 0.3
same,EC50,[8]; nonsense suppression,368 µM
same,pEC50,[8]; nonsense suppression,3.434 ± 0.06 M
same,nH,"[9]; Table 2, n = 6",2.8 ± 0.7
same,EC50,[9]; [20],150 µM
same,pEC50,[9]; [20],3.825 ± 0.06 M
same,nH,"[10]; Table 2, n = 4",2.7 ± 0.7
same,EC50,[10]; [19],36 µM
same,pEC50,[10]; [19],4.439 ± 0.03 M
same,nH,[11],2.9 ± 1.2
same,nH,"[12]; Table 2, n = 4",3.8 ± 0.5
same,EC50,[12]; [19],21 µM
same,pEC50,[12]; [19],4.684 ± 0.03 M
same,nH,[13],3.0 ± 0.2
same,EC50,[13]; nonsense suppression,514 µM
same,pEC50,[13]; nonsense suppression,3.289 ± 0.02 M
same,nH,"[14]; Table 2, n = 4",3.2 ± 0.7
same,EC50,[14]; [19],145 µM
same,pEC50,[14]; [19],3.840 ± 0.05 M
same,nH,[15],2.7 ± 1.1
same,nH,"[16]; Table 2, n = 4",1.5 ± 0.3
same,EC50,[16]; [19],94 µM
same,pEC50,[16]; [19],4.029 ± 0.05 M
"NCCS(=O)(=O)O [Tau, taurine]",EC50,[17],1230 µM
same,ImaxTau/ImaxGly,[17],60 ± 5%
